Consider 9 compounds from ChEMBL document CHEMBL6109157, “Tertiary Alcohol: Reaping the Benefits but Minimizing the Drawbacks of Hydroxy Groups in Drug Discovery” (J Med Chem, 2025).

Data set [1] addresses Dual specificity mitogen-activated protein kinase kinase 1 (Homo sapiens, UniProt Q02750). The data set can be described thus: Inhibition of MEK1 (unknown origin) phosphorylation.
Data set [2] has as its system Mus musculus. Kind of data set: Dose normalized in AUC mouse at 25 mg/kg by LC-MS/MS analysis. The class given is ADME, organism-based. As to conditions: in vivo.
Data set [3] can be described thus: AUC in po dosed mouse at 25 mg/kg by LC-MS/MS analysis. Particulars: in vivo. The class given is ADME, organism-based.
The nature of data set [4]: In vivo inhibition of Angiotensin II-induced pressor response in Wistar rat model at 0.3 mg/kg, po and measured for 6 hrs. The class given is functional.
The nature of data set [5]: Binding affinity to [125I] radiolabelled Angiotensin-2 receptor in bovine adrenal cortex membrane. The data set is classed as cell membranes, Bos taurus.
The test system of data set [6] is Mus musculus. The data set can be described thus: Dose normalized in AUC mouse at 50 mg/kg by LC-MS/MS analysis. Particulars: in vivo. The data set is classed as ADME, organism-based.
A short description of data set [7]: AUC in mouse at 50 mg/kg, po measured for 40 mins by LC-MS/MS analysis. The data set is classed as ADME, organism-based. As to conditions: in vivo.

Chain of Dual specificity mitogen-activated protein kinase kinase 1 (Q02750 whole entry): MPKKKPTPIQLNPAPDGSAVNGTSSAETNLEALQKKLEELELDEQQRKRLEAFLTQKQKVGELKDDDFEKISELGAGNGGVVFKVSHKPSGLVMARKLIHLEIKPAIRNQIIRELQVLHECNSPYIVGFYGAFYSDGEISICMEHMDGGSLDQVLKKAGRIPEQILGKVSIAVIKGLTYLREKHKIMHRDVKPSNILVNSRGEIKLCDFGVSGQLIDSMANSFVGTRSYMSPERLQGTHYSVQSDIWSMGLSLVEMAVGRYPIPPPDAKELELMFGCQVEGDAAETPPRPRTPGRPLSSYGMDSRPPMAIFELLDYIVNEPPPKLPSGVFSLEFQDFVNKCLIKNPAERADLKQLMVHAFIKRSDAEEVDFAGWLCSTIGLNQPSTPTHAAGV

`O=C(c1ccc(F)c(F)c1Nc1ccc(I)cc1F)N1CC(O)([C@@H]2CCCCN2)C1` [COBIMETINIB] registered an IC50 in data set [1] of 0.2 nM. `C[C@]1(O)C[C@@H](c2nc(-c3ccc4ccc(-c5ccccc5)nc4c3)c3c(N)nccn32)C1` [LINSITINIB] had an AUC/dose with Mus musculus [2] of 1069.6 ng·h/mL/mg/kg. The AUC in data set [3] was 26700 ng·h/mL. Compound `CCCc1nc(C(C)(C)O)c(C(=O)O)n1Cc1ccc(-c2ccccc2-c2nnn[nH]2)cc1` [OLMESARTAN] showed an inhibition in vivo at 0.3 mg/kg in data set [4] of 78%. In data set [5], the IC50 came to 8.1 nM. In turn, `CCCc1nc(C(C)C)c(C(=O)O)n1Cc1ccc(-c2ccccc2-c2nn[nH]n2)cc1` returned an IC50 in data set [5] of 46 nM. `CCCc1nc(C(C)O)c(C(=O)O)n1Cc1ccc(-c2ccccc2-c2nn[nH]n2)cc1` (centres undefined): in data set [4], the inhibition in vivo at 0.3 mg/kg was determined as 69%. Moreover, the IC50 in data set [5] was 4.9 nM.

Compound `Nc1nccn2c(C3CCC3)nc(-c3ccc4ccc(-c5ccccc5)nc4c3)c12` showed an AUC/dose in the data set on Mus musculus [6] of 103.4 ng·h/mL/mg/kg. Also, in data set [7], the AUC was found to be 5170 ng·h/mL. In turn, `CCCc1nc(CC)c(C(=O)O)n1Cc1ccc(-c2ccccc2-c2nn[nH]n2)cc1` returned an IC50 in data set [5] of 12 nM. Same read-out and setting: in the case of `CCCc1nc(C)c(C(=O)O)n1Cc1ccc(-c2ccccc2-c2nn[nH]n2)cc1` it was 11 nM. In turn, `CCCc1nc(CO)c(C(=O)O)n1Cc1ccc(-c2ccccc2-c2nn[nH]n2)cc1` displayed an inhibition in vivo at 0.3 mg/kg in data set [4] of 65%. The concentration for half-maximal inhibition (IC50) in data set [5] was 6.9 nM.

The term IC50 denotes the concentration at which inhibition is half-maximal. The low end stands for inhibition by little substance, the high end for a need for much substance. What is called AUC is the area under the concentration-time curve, a measure of exposure. Low values mean low exposure, high ones high exposure. One may read the inhibition in vivo as the percentage by which the read-out fell short of the control.
